Values quoted from earlier work, collected in PMC3547157 (Journal of the American Chemical Society, 2012).

Target: T1, COX-2 enzyme (Homo sapiens, UniProt P35354)
T1 sequence (P35354 18-604): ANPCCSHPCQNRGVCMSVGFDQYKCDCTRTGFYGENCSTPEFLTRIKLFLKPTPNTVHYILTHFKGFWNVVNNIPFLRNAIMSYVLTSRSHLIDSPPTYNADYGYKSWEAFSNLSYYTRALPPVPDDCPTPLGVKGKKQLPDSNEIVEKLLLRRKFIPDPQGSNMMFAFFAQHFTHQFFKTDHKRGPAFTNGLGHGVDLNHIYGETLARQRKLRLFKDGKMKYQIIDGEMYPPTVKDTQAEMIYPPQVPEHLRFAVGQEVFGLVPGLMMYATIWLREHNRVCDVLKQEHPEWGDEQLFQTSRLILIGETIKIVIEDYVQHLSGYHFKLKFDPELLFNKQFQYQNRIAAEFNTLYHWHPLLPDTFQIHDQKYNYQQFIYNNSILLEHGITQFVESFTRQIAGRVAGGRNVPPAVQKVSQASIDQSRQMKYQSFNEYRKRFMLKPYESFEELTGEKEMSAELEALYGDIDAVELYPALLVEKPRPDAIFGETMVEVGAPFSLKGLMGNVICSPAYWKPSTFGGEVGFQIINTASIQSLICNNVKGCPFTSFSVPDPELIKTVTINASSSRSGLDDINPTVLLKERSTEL
Settings: read-out: reported IC50 of naproxen to COX-2; literature values

Compound: COc1ccc2cc([C@H](C)C(=O)O)ccc2c1 [naproxen]
- IC50: 2 to 28.4 µM
